Laboratory results published in ChEMBL document CHEMBL4699665, “Discovery of ANT3310, a Novel Broad-Spectrum Serine β-Lactamase Inhibitor of the Diazabicyclooctane Class, Which Strongly Potentiates Meropenem Activity against Carbapenem-Resistant Enterobacterales and Acinetobacter baumannii” (J Med Chem, 2020).

Legend:
Klebsiella pneumoniae [1] = assay: Antibacterial activity against Klebsiella pneumoniae expressing TEM-OSBL/CTX-M-14/OXA-48 by broth microdilution method; assay type: functional
[2] = Stability in human plasma assessed as parent compound remaining after 1 hr; assay type: ADME, cell-free; conditions: read-out: Stabilty
Acinetobacter baumannii [3] = assay: Antibacterial activity against Acinetobacter baumannii expressing OXA-23 by broth microdilution method; assay type: functional
[4] = Stability in dog plasma assessed as parent compound remaining after 1 hr; assay type: ADME, cell-free, Canis lupus familiaris; conditions: read-out: Stabilty
Enterobacter [5] = assay: Inhibition of beta lactamase OXA in carbapenem-resistant Enterobacter assessed as meropenem-induced antibacterial activity by measuring meropenem MIC 90 at 4 ug/ml by broth microdilution method (Rvb >32 ug/ml); conditions: dose 4.0 µg/ml
[6] = Intrinsic clearance in rat hepatocytes assessed per million cells; assay type: ADME, cell-based, Hepatocyte; conditions: read-out: CLH
Acinetobacter baumannii [7] = assay: Inhibition of beta lactamase OXA in carbapenem-resistant Acinetobacter baumannii assessed as meropenem maximum concentration required for antibacterial activity at 4 ug/ml by broth microdilution method (Rvb > 32 ug/ml); conditions: dose 4.0 µg/ml
[8] = Stability in rat plasma assessed as parent compound remaining after 1 hr; assay type: ADME, cell-free; conditions: read-out: Stabilty
Cytochrome P450 1A2 = target: T1, Cytochrome P450 1A2 (Homo sapiens, UniProt P05177); assay: Inhibition of CYP1A2 in human liver microsomes in presence of NADPH by LC-MS/MS analysis; assay type: ADME
T1 sequence (P05177 whole entry): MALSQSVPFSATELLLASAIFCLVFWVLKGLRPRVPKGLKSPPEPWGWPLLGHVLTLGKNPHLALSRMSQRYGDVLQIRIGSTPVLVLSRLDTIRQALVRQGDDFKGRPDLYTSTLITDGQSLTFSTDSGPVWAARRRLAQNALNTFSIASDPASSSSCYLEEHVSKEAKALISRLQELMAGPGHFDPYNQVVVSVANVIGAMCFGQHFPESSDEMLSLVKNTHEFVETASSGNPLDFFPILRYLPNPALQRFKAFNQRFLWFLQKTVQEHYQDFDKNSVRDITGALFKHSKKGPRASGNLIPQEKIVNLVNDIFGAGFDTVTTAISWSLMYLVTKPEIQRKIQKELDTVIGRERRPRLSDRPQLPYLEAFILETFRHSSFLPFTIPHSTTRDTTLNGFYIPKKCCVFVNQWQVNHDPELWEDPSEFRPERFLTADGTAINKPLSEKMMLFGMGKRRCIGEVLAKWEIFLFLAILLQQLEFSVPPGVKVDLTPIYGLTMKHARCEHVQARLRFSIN

Acinetobacter baumannii [9] = assay: Inhibition of beta lactamase OXA in carbapenem-resistant Acinetobacter baumannii assessed as meropenem-induced antibacterial activity by measuring meropenem MIC50 at 4 ug/ml by broth microdilution method (Rvb > 32 ug/ml); conditions: dose 4.0 µg/ml
[10] = Inhibition of beta lactamase KPC-2 in Enterobacter cloacae assessed as decrease in enzyme activity using nitrocefin as substrate preincubated for 10 mins followed by substrate addition measured for 10 mins by fluorescence plate reader analysis
[11] = target: Voltage-gated inwardly rectifying potassium channel KCNH2 (Homo sapiens, UniProt Q12809); assay: Inhibition of human ERG by patch-clamp assay
Acinetobacter baumannii [12] = assay: Inhibition of beta lactamase OXA in carbapenem-resistant Acinetobacter baumannii assessed as meropenem-induced antibacterial activity by measuring meropenem MIC90 at 4 ug/ml by broth microdilution method (Rvb > 32 ug/ml); conditions: dose 4.0 µg/ml
[13] = Plasma protein binding in dog assessed as fraction unbound by LC-MS/MS analysis; assay type: ADME, cell-free, Canis lupus familiaris
[14] = Intrinsic clearance in human hepatocytes assessed per million cells; assay type: ADME, cell-based, Hepatocyte; conditions: read-out: CLH
[15] = Intrinsic clearance in dog hepatocytes assessed per million cells; assay type: ADME, cell-based, Canis lupus familiaris, Hepatocyte; conditions: read-out: CLH
[16] = Plasma protein binding in mouse assessed as fraction unbound by LC-MS/MS analysis; assay type: ADME, cell-free
[17] = Genotoxicity in Salmonella typhimurium by Ames test; assay type: toxicity; conditions: salmonella enterica subsp. enterica serovar typhimurium
Enterobacter [18] = assay: Inhibition of beta lactamase KPC in carbapenem-resistant Enterobacter assessed as meropenem maximum concentration required for antibacterial activity at 4 ug/ml by broth microdilution method (Rvb >32 ug/ml); conditions: dose 4.0 µg/ml
Acinetobacter baumannii [19] = assay: Potentiation of meropenem-induced antibacterial activity against Acinetobacter baumannii expressing OXA-23 assessed as meropenem MIC at 4 ug/ml by broth microdilution method (reference value: 32 ug/ml); assay type: functional; conditions: dose 4 µg/ml
Klebsiella pneumoniae [20] = assay: Potentiation of meropenem-induced antibacterial activity against Klebsiella Pneumoniae ACC-00783 expressing OXA-48 infected in CD-1 mouse assessed as reduction in bacterial burden co administered with 300 mg/kg, iv meropenem; assay type: functional, organism-based; conditions: dose mg/kg 25-100
[21] = Clearance in rat at 1 mg/kg, iv; assay type: ADME, organism-based; conditions: in vivo
Klebsiella pneumoniae [22] = assay: Potentiation of meropenem-induced antibacterial activity against Klebsiella Pneumoniae NR-48977 expressing KPC-2 infected in CD-1 mouse assessed as reduction in bacterial burden co administered with 300 mg/kg, iv meropenem; assay type: functional, organism-based; conditions: dose mg/kg 25-100
Acinetobacter baumannii [23] = assay: Inhibition of beta lactamase OXA in carbapenem-resistant Acinetobacter baumannii assessed as meropenem minimum concentration required for antibacterial activity at 4 ug/ml by broth microdilution method (reference value: 8 ug/ml); conditions: dose 4.0 µg/ml
Cytochrome P450 2C9 = Cytochrome P450 2C9 (Homo sapiens, UniProt P11712); assay: Inhibition of CYP2C9 in human liver microsomes in presence of NADPH by LC-MS/MS analysis; assay type: ADME
[24] = Stability in mouse plasma assessed as parent compound remaining after 1 hr; assay type: ADME, cell-free; conditions: read-out: Stabilty
[25] = Inhibition of bacteria beta lactamase OXA-23 assessed as decrease in enzyme activity using nitrocefin as substrate preincubated for 10 mins followed by substrate addition measured for 10 mins by fluorescence plate reader analysis
[26] = Intrinsic clearance in mouse hepatocytes assessed per million cells; assay type: ADME, cell-based, Hepatocyte; conditions: read-out: CLH
Klebsiella pneumoniae [27] = assay: Potentiation of meropenem-induced antibacterial activity against Klebsiella pneumoniae expressing TEM-1/SHV-11/KPC-3 assessed as meropenem MIC at 4 ug/ml by broth microdilution method (reference value: 128 ug/ml); assay type: functional; conditions: dose 4 µg/ml
[28] = Plasma protein binding in human assessed as fraction unbound by LC-MS/MS analysis; assay type: ADME, cell-free
Enterobacter [29] = assay: Inhibition of beta lactamase KPC in carbapenem-resistant Enterobacter assessed as meropenem minimum concentration required for antibacterial activity at 4 ug/ml by broth microdilution method (reference value: 4 ug/ml); conditions: dose 4.0 µg/ml
[30] = Volume of distribution in rat at 1 mg/kg, iv; assay type: ADME, organism-based; conditions: in vivo
Klebsiella pneumoniae [31] = assay: Antibacterial activity against Klebsiella pneumoniae expressing TEM-1/SHV-11/KPC-3 by broth microdilution method; assay type: functional
Enterobacter [32] = assay: Inhibition of beta lactamase OXA in carbapenem-resistant Enterobacter assessed as meropenem minimum concentration required for antibacterial activity at 4 ug/ml by broth microdilution method (reference value: 2 ug/ml); conditions: dose 4.0 µg/ml
Cytochrome P450 2D6 = Cytochrome P450 2D6 (Homo sapiens, UniProt P10635); assay: Inhibition of CYP2D6 in human liver microsomes in presence of NADPH by LC-MS/MS analysis; assay type: ADME
Enterobacter cloacae = assay: Antibacterial activity against Enterobacter cloacae expressing TEM-1/KPC-2 by broth microdilution method; assay type: functional
Cytochrome P450 3A4 = Cytochrome P450 3A4 (Homo sapiens, UniProt P08684); assay: Inhibition of CYP3A4 in human liver microsomes in presence of NADPH by LC-MS/MS analysis; assay type: ADME
Chain of Cytochrome P450 3A4 (P08684 whole entry): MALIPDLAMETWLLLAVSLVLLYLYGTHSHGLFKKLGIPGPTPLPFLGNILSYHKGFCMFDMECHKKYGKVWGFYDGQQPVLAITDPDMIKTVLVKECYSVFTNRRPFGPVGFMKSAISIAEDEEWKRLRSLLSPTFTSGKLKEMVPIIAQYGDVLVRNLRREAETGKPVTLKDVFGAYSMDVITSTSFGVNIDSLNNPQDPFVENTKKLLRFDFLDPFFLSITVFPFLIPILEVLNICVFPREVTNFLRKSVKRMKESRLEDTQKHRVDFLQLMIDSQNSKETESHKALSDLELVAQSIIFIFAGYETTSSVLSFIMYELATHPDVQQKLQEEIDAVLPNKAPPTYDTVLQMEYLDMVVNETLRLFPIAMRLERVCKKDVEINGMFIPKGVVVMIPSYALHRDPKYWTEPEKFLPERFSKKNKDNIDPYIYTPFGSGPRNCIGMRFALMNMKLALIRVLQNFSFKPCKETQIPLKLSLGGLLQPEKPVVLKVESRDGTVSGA

Chain of Voltage-gated inwardly rectifying potassium channel KCNH2 (Q12809 whole entry): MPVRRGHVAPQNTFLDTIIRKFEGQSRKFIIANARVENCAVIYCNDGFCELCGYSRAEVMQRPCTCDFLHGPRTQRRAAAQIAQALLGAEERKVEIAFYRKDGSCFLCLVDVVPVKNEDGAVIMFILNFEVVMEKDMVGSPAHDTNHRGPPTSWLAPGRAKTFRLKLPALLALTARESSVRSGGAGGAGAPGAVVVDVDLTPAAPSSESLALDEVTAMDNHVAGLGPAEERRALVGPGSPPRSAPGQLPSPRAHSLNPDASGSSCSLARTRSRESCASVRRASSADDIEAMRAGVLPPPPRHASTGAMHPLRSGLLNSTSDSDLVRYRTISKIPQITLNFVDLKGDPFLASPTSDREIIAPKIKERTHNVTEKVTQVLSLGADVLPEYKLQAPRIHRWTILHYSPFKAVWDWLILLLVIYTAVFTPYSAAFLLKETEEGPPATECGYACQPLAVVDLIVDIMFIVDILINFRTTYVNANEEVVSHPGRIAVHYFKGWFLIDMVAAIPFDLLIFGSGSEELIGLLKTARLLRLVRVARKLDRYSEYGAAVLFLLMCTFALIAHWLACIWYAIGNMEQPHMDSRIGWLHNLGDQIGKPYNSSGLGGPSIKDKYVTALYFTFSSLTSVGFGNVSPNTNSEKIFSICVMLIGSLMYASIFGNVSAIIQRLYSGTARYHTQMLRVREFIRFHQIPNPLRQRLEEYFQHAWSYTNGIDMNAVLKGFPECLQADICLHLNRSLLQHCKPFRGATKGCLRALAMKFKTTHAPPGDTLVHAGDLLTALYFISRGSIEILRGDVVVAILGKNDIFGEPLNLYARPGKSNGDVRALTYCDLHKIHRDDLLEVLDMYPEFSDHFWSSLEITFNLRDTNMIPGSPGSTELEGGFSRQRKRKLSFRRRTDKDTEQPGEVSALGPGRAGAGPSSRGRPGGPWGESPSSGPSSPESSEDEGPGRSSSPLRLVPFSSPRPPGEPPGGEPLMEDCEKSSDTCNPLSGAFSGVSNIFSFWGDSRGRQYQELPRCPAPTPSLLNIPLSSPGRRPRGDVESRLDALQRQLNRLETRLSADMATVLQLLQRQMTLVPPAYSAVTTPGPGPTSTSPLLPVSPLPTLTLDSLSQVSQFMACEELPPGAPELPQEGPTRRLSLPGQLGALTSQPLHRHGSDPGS
Chain of Cytochrome P450 2C9 (P11712 whole entry): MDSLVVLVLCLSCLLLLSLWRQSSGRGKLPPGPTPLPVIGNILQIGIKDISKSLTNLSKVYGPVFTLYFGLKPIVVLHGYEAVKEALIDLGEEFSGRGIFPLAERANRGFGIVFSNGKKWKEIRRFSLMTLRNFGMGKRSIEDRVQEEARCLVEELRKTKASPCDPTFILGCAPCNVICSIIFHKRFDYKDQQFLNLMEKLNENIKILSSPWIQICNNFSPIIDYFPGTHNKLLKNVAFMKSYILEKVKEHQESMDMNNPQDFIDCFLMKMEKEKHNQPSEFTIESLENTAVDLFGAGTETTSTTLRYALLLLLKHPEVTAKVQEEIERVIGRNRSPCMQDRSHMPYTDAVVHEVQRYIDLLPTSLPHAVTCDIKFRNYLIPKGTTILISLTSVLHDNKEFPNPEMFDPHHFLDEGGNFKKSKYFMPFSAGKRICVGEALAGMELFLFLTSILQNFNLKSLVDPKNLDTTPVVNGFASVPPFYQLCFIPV
Chain of Cytochrome P450 2D6 (P10635 whole entry): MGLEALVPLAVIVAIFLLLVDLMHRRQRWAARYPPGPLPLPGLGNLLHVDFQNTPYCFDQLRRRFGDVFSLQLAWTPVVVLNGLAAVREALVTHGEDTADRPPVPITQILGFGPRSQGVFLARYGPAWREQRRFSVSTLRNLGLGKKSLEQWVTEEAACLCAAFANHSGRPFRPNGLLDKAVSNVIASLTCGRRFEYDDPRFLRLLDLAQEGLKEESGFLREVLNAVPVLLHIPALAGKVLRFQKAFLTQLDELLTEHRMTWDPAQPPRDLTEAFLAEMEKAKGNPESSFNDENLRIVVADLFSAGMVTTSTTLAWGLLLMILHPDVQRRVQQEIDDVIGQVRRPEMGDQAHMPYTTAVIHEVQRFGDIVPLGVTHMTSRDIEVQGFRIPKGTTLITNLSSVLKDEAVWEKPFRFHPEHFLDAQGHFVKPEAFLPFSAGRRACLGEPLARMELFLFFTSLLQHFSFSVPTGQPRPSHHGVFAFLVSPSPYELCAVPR

Q: With `O=C1N2C[C@@H](CC[C@H]2F)N1OS(=O)(=O)[O-].[Na+]` as the compound, how does the MIC (Klebsiella pneumoniae [1]) read?
A: 64 µg/mL

Q: What about the remaining at 1 h [2] of the same compound?
A: 79%

Q: What about the MIC (Acinetobacter baumannii [3]) of the same compound?
A: > 128 µg/mL

Q: And the remaining at 1 h [4]?
A: 85%

Q: What about the MIC90 (Enterobacter [5]) of the same compound?
A: 1 µg/mL

Q: What about the hepatocyte CLint [6] of the same compound?
A: < 3.4 µL/min/1e6 cells

Q: And the Activity (Acinetobacter baumannii [7])?
A: > 32 µg/mL

Q: And the remaining at 1 h [8]?
A: 55%

Q: And the IC50 (Cytochrome P450 1A2)?
A: > 50 µM

Q: What about the MIC50 (Acinetobacter baumannii [9]) of the same compound?
A: 4 µg/mL

Q: What about the IC50 [10] of the same compound?
A: 0.019 µM

Q: And the IC50 [11]?
A: > 100 µM

Q: And the MIC90 (Acinetobacter baumannii [12])?
A: 8 µg/mL

Q: What about the fraction unbound [13] of the same compound?
A: > 0.93

Q: And the hepatocyte CLint [14]?
A: < 3.4 µL/min/1e6 cells

Q: And the hepatocyte CLint [15]?
A: < 3 µL/min/1e6 cells

Q: What about the fraction unbound [16] of the same compound?
A: > 0.93

Q: What about the Activity [17] of the same compound?
A: Non-Toxic

Q: What about the Activity (Enterobacter [18]) of the same compound?
A: 16 µg/mL

Q: And the MIC (Acinetobacter baumannii [19])?
A: 2 µg/mL

Q: What about the Activity (Klebsiella pneumoniae [20]) of the same compound?
A: Dose-dependent effect

Q: What about the clearance [21] of the same compound?
A: 40 mL/min/kg

Q: And the Activity (Klebsiella pneumoniae [22])?
A: Dose-dependent effect

Q: And the MIC (Acinetobacter baumannii [23])?
A: 0.25 µg/mL

Q: What about the IC50 (Cytochrome P450 2C9) of the same compound?
A: > 50 µM

Q: What about the remaining at 1 h [24] of the same compound?
A: 90%

Q: And the IC50 [25]?
A: 0.05 µM

Q: And the hepatocyte CLint [26]?
A: < 3.5 µL/min/1e6 cells

Q: And the MIC (Klebsiella pneumoniae [27])?
A: 1 µg/mL

Q: And the fraction unbound [28]?
A: > 0.93

Q: And the MIC (Enterobacter [29])?
A: < 0.03 µg/mL

Q: And the Vd [30]?
A: 2.2 L/kg

Q: What about the MIC (Klebsiella pneumoniae [31]) of the same compound?
A: 128 µg/mL

Q: And the MIC (Enterobacter [32])?
A: < 0.03 µg/mL

Q: What about the IC50 (Cytochrome P450 2D6) of the same compound?
A: > 50 µM

Q: And the MIC (Enterobacter cloacae)?
A: 128 µg/mL

Q: And the IC50 (Cytochrome P450 3A4)?
A: > 50 µM
